# Reference: US20180320217A1, “METHODS FOR SAMPLING AND MEASURING ORAL LAVAGE PROTEINS” (The Procter & Gamble Company, priority 2017, published 2018)
# Counter-ions that a name gives are not always drawn.
# How the values were obtained:
# [1] = system: oral lavage; assay: Formation of formazan dyes: oral lavage, malate and 1-Methoxy PMS (TABLE 20); assay type: biochemical, human; conditions: oral lavage, malate and 1-Methoxy PMS, mean of three experiments
# [2] = Formation of formazan dyes: NADH, malate and 1-methoxy PMS (TABLE 16); assay type: biochemical; conditions: NADH, malate and 1-methoxy PMS, mean of three experiments
# [3] = system: oral lavage; assay: Formation of formazan dyes: oral lavage and 1-Methoxy PMS, absence of malate (TABLE 19); assay type: biochemical, human; conditions: oral lavage and 1-Methoxy PMS, absence of malate, mean of three experiments
# [4] = biological target: T1, Malate dehydrogenase (Sus scrofa, UniProt P00346); assay: Formation of formazan dyes: Malate dehydrogenase, malate and 1-Methoxy PMS (TABLE 18); assay type: biochemical, pig heart; parameters: L-malate dehydrogenase (pig heart); purchased Sigma-Aldrich 10127248001 / 10127914001; conditions: Malate dehydrogenase, malate and 1-Methoxy PMS, mean of three experiments
# T1 sequence (P00346 25-338): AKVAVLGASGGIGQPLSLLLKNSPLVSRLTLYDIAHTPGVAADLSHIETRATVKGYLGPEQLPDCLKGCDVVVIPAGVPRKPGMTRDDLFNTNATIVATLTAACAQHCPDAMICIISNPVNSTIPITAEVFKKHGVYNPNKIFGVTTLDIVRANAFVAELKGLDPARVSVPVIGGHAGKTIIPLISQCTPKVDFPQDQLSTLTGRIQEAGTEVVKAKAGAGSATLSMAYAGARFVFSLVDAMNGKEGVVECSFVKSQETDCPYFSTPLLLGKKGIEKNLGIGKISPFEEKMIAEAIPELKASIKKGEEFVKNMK
# [5] = system: Malate dehydrogenase and diaphorase; assay: Formation of formazan dyes: Malate dehydrogenase, diaphorase and malate (TABLE 10); assay type: biochemical, pig heart
# [6] = system: diaphorase; assay: Effect of concentrations of tetrazolium salts on formation of formazan dyes (FIGS. 4A-4G); assay type: biochemical; conditions: 15 mM NADH+H, 20 μg diaphorase, pH 7.5; FIGS. 4A to 4G
# Description: On the idea that higher concentrations of tetrazolium salts in the assay buffer would likely result in more formazan dyes in the reaction, various concentrations of tetrazolium salts were added to a reaction buffer and the formation of formazan dyes were measured at 0, 30 and 60 minutes. […] The reactions were performed at room temperature. Absorbance was taken at 0, 30 and 60 minutes.
# [7] = system: diaphorase; assay: Formation of formazan dyes: only diaphorase, not malate (TABLE 13); assay type: biochemical, Clostridium kluyveri; conditions: mean of three experiments
# [8] = Formation of formazan dyes: control buffer, malate and 1-Methoxy PMS (TABLE 22); assay type: biochemical; conditions: control buffer, malate and 1-Methoxy PMS, mean of three experiments
# [9] = system: oral lavage; assay: Formation of formazan dyes: oral lavage, malate and diaphorase (TABLE 12); assay type: biochemical, human; conditions: oral lavage, malate and diaphorase
# [10] = system: Malate dehydrogenase and diaphorase; assay: Formation of formazan dyes: Malate dehydrogenase and diaphorase, absence of malate (TABLE 9); assay type: biochemical, pig heart
# [11] = Formation of formazan dyes: control buffer and 1-Methoxy PMS, absence of malate (TABLE 21); assay type: biochemical; conditions: for Absorbance, formation of formazan dyes (Means): control buffer and 1-Methoxy PMS, absence of malate, mean of three experiments
# [12] = system: diaphorase; assay: Formation of formazan dyes: only diaphorase and malate (TABLE 14); assay type: biochemical, Clostridium kluyveri; conditions: mean of three experiments
compound,measurement,setting,value
"Cc1nc(-[n+]2nc(-c3cccc(OCC(=O)O)c3)nn2-c2ccc(S(=O)(=O)[O-])cc2)sc1C [MTS, 3-(4,5-dimethylthiazol-2-yl)-5-(3-carboxymethoxyphenyl)-2-(4-sulfophenyl)-2H-tetrazolium, inner salt]","Absorbance, formation of formazan dyes (Means)",[1]; 0 h,0.78
same,"Absorbance, formation of formazan dyes (Means)",[1]; 1 h,1.33
same,"Absorbance, formation of formazan dyes (Means)",[1]; 2 h,1.69
same,"Absorbance, formation of formazan dyes (Means)",[1]; 3 h,1.90
same,"Absorbance, formation of formazan dyes (Means)",[1]; 4 h,1.87
same,"Absorbance, formation of formazan dyes (Means)",[1]; 6 h,2.27
same,"Absorbance, formation of formazan dyes (Means)",[1]; 8 h,2.60
same,"Absorbance, formation of formazan dyes (Means)",[1]; 10 h,2.89
same,"Absorbance, formation of formazan dyes (Means)",[1]; 12 h,3.22
same,"Absorbance, formation of formazan dyes (Means)",[2]; 0 h,2.33
same,"Absorbance, formation of formazan dyes (Means)",[2]; 1 h,2.41
same,"Absorbance, formation of formazan dyes (Means)",[2]; 2 h,2.44
same,"Absorbance, formation of formazan dyes (Means)",[2]; 3 h,2.47
same,"Absorbance, formation of formazan dyes (Means)",[2]; 4 h,2.27
same,"Absorbance, formation of formazan dyes (Means)",[2]; 6 h,2.38
same,"Absorbance, formation of formazan dyes (Means)",[2]; 8 h,2.41
same,"Absorbance, formation of formazan dyes (Means)",[2]; 10 h,2.45
same,"Absorbance, formation of formazan dyes (Means)",[2]; 12 h,2.40
same,"Absorbance, formation of formazan dyes (Means)",[3]; 0 h,0.87
same,"Absorbance, formation of formazan dyes (Means)",[3]; 1 h,1.50
same,"Absorbance, formation of formazan dyes (Means)",[3]; 2 h,1.82
same,"Absorbance, formation of formazan dyes (Means)",[3]; 3 h,2.08
same,"Absorbance, formation of formazan dyes (Means)",[3]; 4 h,1.94
same,"Absorbance, formation of formazan dyes (Means)",[3]; 6 h,2.32
same,"Absorbance, formation of formazan dyes (Means)",[3]; 8 h,2.51
same,"Absorbance, formation of formazan dyes (Means)",[3]; 10 h,2.66
same,"Absorbance, formation of formazan dyes (Means)",[3]; 12 h,2.74
same,"Absorbance, formation of formazan dyes (Means)",[4]; 0 h,2.40
same,"Absorbance, formation of formazan dyes (Means)",[4]; 1 h,3.33
same,"Absorbance, formation of formazan dyes (Means)",[4]; 2 h,3.42
same,"Absorbance, formation of formazan dyes (Means)",[4]; 3 h,3.38
same,"Absorbance, formation of formazan dyes (Means)",[4]; 4 h,3.38
same,"Absorbance, formation of formazan dyes (Means)",[4]; 6 h,3.27
same,"Absorbance, formation of formazan dyes (Means)",[4]; 8 h,3.26
same,"Absorbance, formation of formazan dyes (Means)",[4]; 10 h,3.18
same,"Absorbance, formation of formazan dyes (Means)",[4]; 12 h,3.09
same,"Formation of formazan dyes, absorbance, Means 0 h","[5]; Malate dehydrogenase, diaphorase and malate, 0 h",1.72
same,"Formation of formazan dyes, absorbance, Means 1 h","[5]; Malate dehydrogenase, diaphorase and malate, 1 h",2.67
same,"Formation of formazan dyes, absorbance, Means 2 h","[5]; Malate dehydrogenase, diaphorase and malate, 2 h",2.93
same,"Formation of formazan dyes, absorbance, Means 3 h","[5]; Malate dehydrogenase, diaphorase and malate, 3 h",3.12
same,"Formation of formazan dyes, absorbance, Means 4 h","[5]; Malate dehydrogenase, diaphorase and malate, 4 h",3.48
same,"Formation of formazan dyes, absorbance, Means 6 h","[5]; Malate dehydrogenase, diaphorase and malate, 6 h",3.67
same,"Formation of formazan dyes, absorbance, Means 8 h","[5]; Malate dehydrogenase, diaphorase and malate, 8 h",3.73
same,"Formation of formazan dyes, absorbance, Means 10 h","[5]; Malate dehydrogenase, diaphorase and malate, 10 h",3.74
same,"Formation of formazan dyes, absorbance, Means 12 h","[5]; Malate dehydrogenase, diaphorase and malate, 12 h",3.71
same,conversion to reduced formazan dyes,"[5]; malate dehydrogenase, diaphorase and malate (TABLE 10)",converted to reduced formazan dyes in a time-dependent manner
same,concentration of tetrazolium salt at which absorbance reached peaks,[6],around 1.5 mM
same,"Absorbance, formation of formazan dyes (Means)",[7]; 0 h,0.16
same,"Absorbance, formation of formazan dyes (Means)",[7]; 1 h,0.25
same,"Absorbance, formation of formazan dyes (Means)",[7]; 2 h,0.26
same,"Absorbance, formation of formazan dyes (Means)",[7]; 3 h,0.22
same,"Absorbance, formation of formazan dyes (Means)",[7]; 4 h,0.17
same,"Absorbance, formation of formazan dyes (Means)",[7]; 6 h,0.20
same,"Absorbance, formation of formazan dyes (Means)",[7]; 8 h,0.16
same,"Absorbance, formation of formazan dyes (Means)",[7]; 10 h,0.13
same,"Absorbance, formation of formazan dyes (Means)",[7]; 12 h,0.14
same,Means absorbance 0 h,[8]; 0 h,0.20
same,Means absorbance 1 h,[8]; 1 h,0.20
same,Means absorbance 2 h,[8]; 2 h,0.21
same,Means absorbance 3 h,[8]; 3 h,0.23
same,Means absorbance 4 h,[8]; 4 h,0.25
same,Means absorbance 6 h,[8]; 6 h,0.33
same,Means absorbance 8 h,[8]; 8 h,0.36
same,Means absorbance 10 h,[8]; 10 h,0.47
same,Means absorbance 12 h,[8]; 12 h,0.50
same,"Formation of formazan dyes, absorbance, Means 0 h",[9]; 0 h,0.68
same,"Formation of formazan dyes, absorbance, Means 1 h",[9]; 1 h,0.93
same,"Formation of formazan dyes, absorbance, Means 2 h",[9]; 2 h,1.07
same,"Formation of formazan dyes, absorbance, Means 3 h",[9]; 3 h,1.14
same,"Formation of formazan dyes, absorbance, Means 4 h",[9]; 4 h,1.34
same,"Formation of formazan dyes, absorbance, Means 6 h",[9]; 6 h,1.56
same,"Formation of formazan dyes, absorbance, Means 8 h",[9]; 8 h,1.84
same,"Formation of formazan dyes, absorbance, Means 10 h",[9]; 10 h,2.10
same,"Formation of formazan dyes, absorbance, Means 12 h",[9]; 12 h,2.27
same,"Formation of formazan dyes, absorbance, Means 0 h","[10]; Malate dehydrogenase and diaphorase, absence of malate, 0 h",0.17
same,"Formation of formazan dyes, absorbance, Means 1 h","[10]; Malate dehydrogenase and diaphorase, absence of malate, 1 h",0.24
same,"Formation of formazan dyes, absorbance, Means 2 h","[10]; Malate dehydrogenase and diaphorase, absence of malate, 2 h",0.22
same,"Formation of formazan dyes, absorbance, Means 3 h","[10]; Malate dehydrogenase and diaphorase, absence of malate, 3 h",0.25
same,"Formation of formazan dyes, absorbance, Means 4 h","[10]; Malate dehydrogenase and diaphorase, absence of malate, 4 h",0.21
same,"Formation of formazan dyes, absorbance, Means 6 h","[10]; Malate dehydrogenase and diaphorase, absence of malate, 6 h",0.22
same,"Formation of formazan dyes, absorbance, Means 8 h","[10]; Malate dehydrogenase and diaphorase, absence of malate, 8 h",0.23
same,"Formation of formazan dyes, absorbance, Means 10 h","[10]; Malate dehydrogenase and diaphorase, absence of malate, 10 h",0.26
same,"Formation of formazan dyes, absorbance, Means 12 h","[10]; Malate dehydrogenase and diaphorase, absence of malate, 12 h",0.25
same,reduction of tetrazolium dye in the absence of substrate malate,[10]; malate dehydrogenase and diaphorase (TABLE 9),remained largely in oxidized forms
same,"Absorbance, formation of formazan dyes (Means)",[11]; 0 h,0.36
same,"Absorbance, formation of formazan dyes (Means)",[11]; 1 h,0.42
same,"Absorbance, formation of formazan dyes (Means)",[11]; 2 h,0.41
same,"Absorbance, formation of formazan dyes (Means)",[11]; 3 h,0.43
same,"Absorbance, formation of formazan dyes (Means)",[11]; 4 h,0.43
same,"Absorbance, formation of formazan dyes (Means)",[11]; 6 h,0.48
same,"Absorbance, formation of formazan dyes (Means)",[11]; 8 h,0.59
same,"Absorbance, formation of formazan dyes (Means)",[11]; 10 h,0.63
same,"Absorbance, formation of formazan dyes (Means)",[11]; 12 h,0.66
same,conversion into colored formazan dyes in assay buffer containing 1-methoxy PMS,"[11]; control buffer, absence of malate (TABLE 21) or presence of malate (TABLE 22)",slowly catalyze the conversion of tetrazolium salts into colored formazan dyes
same,"Absorbance, formation of formazan dyes (Means)",[12]; 0 h,0.16
same,"Absorbance, formation of formazan dyes (Means)",[12]; 1 h,0.22
same,"Absorbance, formation of formazan dyes (Means)",[12]; 2 h,0.27
same,"Absorbance, formation of formazan dyes (Means)",[12]; 3 h,0.32
same,"Absorbance, formation of formazan dyes (Means)",[12]; 4 h,0.46
same,"Absorbance, formation of formazan dyes (Means)",[12]; 6 h,0.57
same,"Absorbance, formation of formazan dyes (Means)",[12]; 8 h,0.68
same,"Absorbance, formation of formazan dyes (Means)",[12]; 10 h,0.79
same,"Absorbance, formation of formazan dyes (Means)",[12]; 12 h,0.93
